{"source": "patent US8349837B2", "about": "“Pharmaceutical composition comprising racemic aminopterin” (Aminopterin, LLC, priority 2009, dated 2013)", "test": "Pharmacokinetics and oral absorption in Beagle dogs", "settings": "for Mean Plasma D-isomer: Beagle dogs N=10, oral capsule by gastric placement, 1 mg D-isomer", "procedure": "Ten (N=10) Beagle dogs were enrolled in a pharmacokinetic study to examine the oral absorption of 1 tablet of the pure L-isomer tablet formulation (batch 116I0604), 1 mg of the D-isomer admixed with 99 mg microcrystalline cellulose, and 4 tablets of the racemic tablet formulation (batch 157I0907). Each formulation was encapsulated in a hard gelatin capsule and administered by direct gastric placement. Dosing of each formulation was separated by a 7 day washout period. The mean body weight of the ten dogs was 11.3±1.7 (SD) kilograms.\nFor pharmacokinetic analysis, venous blood samples with EDTA as anticoagulant were taken before each dosing and at 0.5, 1, 1.5, 2, 3, 6, 9 and 12 hours after each dosing. Samples were centrifuged, and the plasma collected and frozen for analysis. There was no urine sampling in this study. Aminopterin in plasma samples was quantitated by an achiral LC/MS assay (Advion Biosciences, Ithaca, N.Y.). The lower limit of quantitation (LLOQ) of the assay was 0.5 ng/ml or 1.2 nM. The amount of L-isomer and D-isomer in plasma samples from animals dosed with the racemate was determined using a chiral LC/MS assay.", "key": {"[1]": {"settings": "Beagle dogs, oral, isomers given separately"}}, "data": [{"smiles": "Nc1nc(N)c2nc(CNc3ccc(C(=O)N[C@@H](CCC(=O)O)C(=O)O)cc3)cnc2n1", "note": "[L-isomer]", "values": [{"measurement": "oral absorption when given separately", "setting": "[1]", "result": "efficiently absorbed"}]}, {"smiles": "Nc1nc(N)c2nc(CNc3ccc(C(=O)N[C@H](CCC(=O)O)C(=O)O)cc3)cnc2n1", "note": "(single isomer, unassigned) [D-isomer]", "values": [{"measurement": "Mean Plasma D-isomer", "setting": "collection time 0.0 hr (before dosing)", "result": 0.0000, "unit": "µM"}, {"measurement": "Mean Plasma D-isomer", "setting": "collection time 0.5 hr", "result": 0.0050, "unit": "µM"}, {"measurement": "Mean Plasma D-isomer", "setting": "collection time 1.0 hr", "result": 0.0117, "unit": "µM"}, {"measurement": "Mean Plasma D-isomer", "setting": "collection time 1.5 hr", "result": 0.0150, "unit": "µM"}, {"measurement": "Mean Plasma D-isomer", "setting": "collection time 2.0 hr", "result": 0.0152, "unit": "µM"}, {"measurement": "Mean Plasma D-isomer", "setting": "collection time 3.0 hr", "result": 0.0106, "unit": "µM"}, {"measurement": "Mean Plasma D-isomer", "setting": "collection time 6.0 hr", "result": 0.0034, "unit": "µM"}, {"measurement": "Mean Plasma D-isomer", "setting": "collection time 9.0 hr", "result": 0.0023, "unit": "µM"}, {"measurement": "Mean Plasma D-isomer", "setting": "collection time 12.0 hr", "result": 0.0026, "unit": "µM"}, {"measurement": "oral absorption when given separately", "setting": "[1]", "result": "efficiently absorbed"}, {"measurement": "systemic exposure relative to that of the L-isomer (AUC ratio)", "setting": "[1]", "result": "approximately 30%"}]}]}
